# Results taken from publication PMC5882164, “A novel calcimimetic agent, evocalcet (MT-4580/KHK7580), suppresses the parathyroid cell function with little effect on the gastrointestinal tract or CYP isozymes in vivo and in vitro” (PLoS ONE, 2018).
# Values joined by “and” are separate entries in the source; they are usually repeats but may differ in a detail not shown here. Equal values may be shown once.
# Assays:
# serum PTH = assay: 5/6 nephrectomized rats study: serum PTH level; assay type: in vivo, rat; conditions: 5/6 Nx rats; for Serum PTH levels before (day 0) and 24 h after evocalcet administration, Mean / Serum PTH levels after the first administration, Mean: group mean; for Serum PTH levels before (day 0) and 24 h after evocalcet administration: individual rats
# Experimental: (§1) Rats were 5/6 nephrectomized in two steps. Under anesthesia (pentobarbital, 50 mg/kg; intraperitoneally) and analgesia (lidocaine; topically), two-thirds of the left kidney was removed, and then the right kidney was removed after a seven-day interval. Seven days after the completion of 5/6 nephrectomy, the FR-2 diet was changed to a high-phosphate diet, containing 0.6% calcium and 0.9% phosphate (Oriental Yeast Co., Ltd., Tokyo, Japan). Approximately 2 weeks after the initiation of the high-phosphate diet, the 5/6 Nx rats were divided into five groups (n = 12/group) matched in terms of their body weight as well as their blood urea nitrogen (BUN) and serum PTH and calcium levels.
# (§2) In the single-dose study, blood samples were collected from the tail vein before and at 0.5, 2, 4, 8, 24, 48, and 72 h after the oral administration of vehicle (0.5% methyl cellulose solution) or evocalcet (0.03, 0.1, 0.3, or 1 mg/kg). In the repeated-dose study, vehicle or evocalcet was orally administered to the respective groups once daily for 14 days. Blood samples were obtained from the tail vein before the first administration and after the seventh and last administrations.
# (§3) The serum PTH level was measured using a Rat Intact PTH ELISA kit (Immutopics, Inc., San Clemente, CA). The serum calcium, phosphate and BUN levels were measured using an auto analyzer (Hitachi High-Technologies Corporation., Tokyo, Japan) or the following test kits: the Calcium E-test WAKO, the Phospha C-test WAKO, or the Blood Urea nitrogen B-test WAKO (Wako Pure Chemical Industries, Ltd., Osaka, Japan).
# serum calcium = assay: 5/6 nephrectomized rats study: serum calcium level; assay type: in vivo, rat; conditions: 5/6 Nx rats, 0.03 mg/kg; for Serum Ca levels before (day 0) and 24 h after evocalcet administration, Mean: group mean
# Experimental: as §1, §2, §3
compound,measurement,setting,value
C[C@@H](N[C@H]1CCN(c2ccc(CC(=O)O)cc2)C1)c1cccc2ccccc12 [evocalcet],Serum PTH levels after the first administration,"serum PTH; 0.03 mg/kg, 0 h, group mean of 12 rats",2235.149
same,Serum PTH levels after the first administration,"serum PTH; 0.03 mg/kg, 0 h, individual rat",3146.838 and 3130.460 and 2411.903 and 1952.597 and 3363.037 and 1097.629
same,Serum PTH levels after the first administration,"serum PTH; 0.03 mg/kg, 0.5 h, group mean of 12 rats",2132.775
same,Serum PTH levels after the first administration,"serum PTH; 0.03 mg/kg, 0.5 h, individual rat",4101.960 and 5220.639 and 2506.611 and 3090.422 and 3558.006 and 125.411
same,Serum PTH levels after the first administration,"serum PTH; 0.03 mg/kg, 2 h, group mean of 12 rats",2186.293
same,Serum PTH levels after the first administration,"serum PTH; 0.03 mg/kg, 2 h, individual rat",4890.509 and 4068.711 and 2185.504 and 3005.600 and 4664.020 and 345.560
same,Serum PTH levels after the first administration,"serum PTH; 0.03 mg/kg, 4 h, group mean of 12 rats",2269.553
same,Serum PTH levels after the first administration,"serum PTH; 0.03 mg/kg, 4 h, individual rat",4679.877 and 4835.119 and 2331.859 and 3883.490 and 3137.288 and 547.391
same,Serum PTH levels after the first administration,"serum PTH; 0.03 mg/kg, 8 h, group mean of 12 rats",2414.885
same,Serum PTH levels after the first administration,"serum PTH; 0.03 mg/kg, 8 h, individual rat",5964.855 and 4334.746 and 2555.658 and 4291.517 and 2662.474 and 769.912
same,Serum PTH levels after the first administration,"serum PTH; 0.03 mg/kg, 24 h, group mean of 12 rats",2792.495
same,Serum PTH levels after the first administration,"serum PTH; 0.03 mg/kg, 24 h, individual rat",4890.842 and 5921.359 and 2295.822 and 3334.469 and 3685.692 and 634.649
same,"Serum PTH levels before (day 0) and 24 h after evocalcet administration, Mean","serum PTH; 0.03 mg/kg, day 0 (Before)",2235.149
same,Serum PTH levels before (day 0) and 24 h after evocalcet administration,"serum PTH; 0.03 mg/kg, day 0 (Before), 0.03 mg/kg",3146.838 and 3130.460 and 2411.903 and 1952.597 and 3363.037 and 1097.629 and 2977.436 and 1709.257 and 736.362 and 1492.356 and 1948.854 and 2855.064
same,"Serum PTH levels before (day 0) and 24 h after evocalcet administration, Mean","serum PTH; 0.03 mg/kg, day 7 (24 h)",1440.297
same,Serum PTH levels before (day 0) and 24 h after evocalcet administration,"serum PTH; 0.03 mg/kg, day 7 (24 h), 0.03 mg/kg",175.760 and 1003.083 and 756.245 and 2355.229 and 3361.800 and 1990.106 and 170.127 and 208.561 and 3498.638 and 332.146 and 1090.222 and 2341.644
same,"Serum PTH levels before (day 0) and 24 h after evocalcet administration, Mean","serum PTH; 0.03 mg/kg, day 14 (24 h)",2303.348
same,Serum PTH levels before (day 0) and 24 h after evocalcet administration,"serum PTH; 0.03 mg/kg, day 14 (24 h), 0.03 mg/kg",4997.693 and 3995.599 and 1879.977 and 3492.362 and 3523.261 and 468.569 and 465.344 and 1621.501 and 608.285 and 1702.644 and 1919.474 and 2965.469
same,Serum PTH levels after the first administration,"serum PTH; 0.1 mg/kg, 0 h, individual rat",2191.024 and 4476.799 and 4734.069 and 3561.219 and 1608.879 and 3394.625 and 2344.750 and 2855.532 and 1478.317 and 2515.323
same,Serum PTH levels after the first administration,"serum PTH; 0.1 mg/kg, 0.5 h, individual rat",697.065 and 166.990 and 643.814 and 188.145 and 87.713 and 1427.254 and 2994.134 and 497.193 and 52.922 and 216.107
same,Serum PTH levels after the first administration,"serum PTH; 0.1 mg/kg, 2 h, individual rat",921.070 and 152.688 and 1274.188 and 268.767 and 48.850 and 837.618 and 3213.565 and 734.412 and 45.617 and 171.332
same,Serum PTH levels after the first administration,"serum PTH; 0.1 mg/kg, 4 h, individual rat",1346.496 and 622.337 and 1091.618 and 881.643 and 178.355 and 1445.792 and 3885.042 and 1344.283 and 585.655 and 429.439
same,Serum PTH levels after the first administration,"serum PTH; 0.1 mg/kg, 8 h, individual rat",1602.872 and 1239.629 and 2688.836 and 1069.819 and 616.193 and 1780.899 and 3893.446 and 2481.366 and 541.217
same,Serum PTH levels after the first administration,"serum PTH; 0.1 mg/kg, 24 h, individual rat",2327.970 and 3050.546 and 5188.511 and 1270.996 and 1634.838 and 3384.643 and 3324.854 and 2293.418 and 169.556
same,"Serum PTH levels before (day 0) and 24 h after evocalcet administration, Mean","serum PTH; 0.1 mg/kg, day 0 (Before)",3005.615
same,Serum PTH levels before (day 0) and 24 h after evocalcet administration,"serum PTH; 0.1 mg/kg, day 0 (Before), 0.1 mg/kg",2191.024 and 4476.799 and 4734.069 and 3561.219 and 1608.879 and 3394.625 and 2344.750 and 2855.532 and 1478.317 and 2515.323 and 3938.529 and 2968.311
same,"Serum PTH levels before (day 0) and 24 h after evocalcet administration, Mean","serum PTH; 0.1 mg/kg, day 7 (24 h)",2408.528
same,Serum PTH levels before (day 0) and 24 h after evocalcet administration,"serum PTH; 0.1 mg/kg, day 7 (24 h), 0.1 mg/kg",1659.111 and 1709.141 and 1368.206 and 692.961 and 2049.745 and 3311.770 and 3632.825 and 4438.329 and 2720.020 and 2668.995 and 3977.154 and 674.076
same,"Serum PTH levels before (day 0) and 24 h after evocalcet administration, Mean","serum PTH; 0.1 mg/kg, day 14 (24 h)",1395.021
same,Serum PTH levels before (day 0) and 24 h after evocalcet administration,"serum PTH; 0.1 mg/kg, day 14 (24 h), 0.1 mg/kg",1994.437 and 1611.022 and 2757.774 and 1453.572 and 176.238 and 2214.760 and 1548.955 and 1921.086 and 242.603 and 1372.697 and 1155.599 and 291.504
same,"Serum PTH levels before (day 0) and 24 h after evocalcet administration, Mean","serum PTH; 0.3 mg/kg, day 0 (before)",2359.764
same,Serum PTH levels before (day 0) and 24 h after evocalcet administration,"serum PTH; 0.3 mg/kg, day 0 (before), 0.3 mg/kg",1632.745 and 2446.532 and 2253.029 and 2449.574 and 3238.325 and 2017.644
same,"Serum PTH levels before (day 0) and 24 h after evocalcet administration, Mean","serum PTH; 0.3 mg/kg, day 7 (24 h)",387.934
same,Serum PTH levels before (day 0) and 24 h after evocalcet administration,"serum PTH; 0.3 mg/kg, day 7 (24 h), 0.3 mg/kg",516.033 and 370.580 and 777.450 and 52.037 and 15.500 and 862.269
same,"Serum PTH levels before (day 0) and 24 h after evocalcet administration, Mean","serum PTH; 0.3 mg/kg, day 14 (24 h)",440.352
same,Serum PTH levels before (day 0) and 24 h after evocalcet administration,"serum PTH; 0.3 mg/kg, day 14 (24 h), 0.3 mg/kg",134.323 and 160.654 and 218.153 and 43.180 and 221.109 and 481.197
same,"Serum PTH levels after the first administration, Mean","serum PTH; 0.3 mg/kg, time 0 h",2359.764
same,"Serum PTH levels after the first administration, Mean","serum PTH; 0.3 mg/kg, time 0.5 h",200.671
same,"Serum PTH levels after the first administration, Mean","serum PTH; 0.3 mg/kg, time 2 h",273.789
same,"Serum PTH levels after the first administration, Mean","serum PTH; 0.3 mg/kg, time 4 h",614.302
same,"Serum PTH levels after the first administration, Mean","serum PTH; 0.3 mg/kg, time 8 h",1297.802
same,"Serum PTH levels after the first administration, Mean","serum PTH; 0.3 mg/kg, time 24 h",1196.310
same,"Serum PTH levels before (day 0) and 24 h after evocalcet administration, Mean","serum PTH; 1 mg/kg, day 0 (before)",2488.277
same,Serum PTH levels before (day 0) and 24 h after evocalcet administration,"serum PTH; 1 mg/kg, day 0 (before), 1 mg/kg",3077.112 and 1497.503 and 1942.068 and 2386.399
same,"Serum PTH levels before (day 0) and 24 h after evocalcet administration, Mean","serum PTH; 1 mg/kg, day 7 (24 h)",641.383
same,Serum PTH levels before (day 0) and 24 h after evocalcet administration,"serum PTH; 1 mg/kg, day 7 (24 h), 1 mg/kg",740.010 and 15.500 and 123.742
same,"Serum PTH levels before (day 0) and 24 h after evocalcet administration, Mean","serum PTH; 1 mg/kg, day 14 (24 h)",594.302
same,Serum PTH levels before (day 0) and 24 h after evocalcet administration,"serum PTH; 1 mg/kg, day 14 (24 h), 1 mg/kg",671.158 and 155.818 and 37.909
same,"Serum PTH levels after the first administration, Mean","serum PTH; 1 mg/kg, time 0 h",2488.277
same,"Serum PTH levels after the first administration, Mean","serum PTH; 1 mg/kg, time 0.5 h",86.013
same,"Serum PTH levels after the first administration, Mean","serum PTH; 1 mg/kg, time 2 h",672.764
same,"Serum PTH levels after the first administration, Mean","serum PTH; 1 mg/kg, time 4 h",302.274
same,"Serum PTH levels after the first administration, Mean","serum PTH; 1 mg/kg, time 8 h",788.660
same,"Serum PTH levels after the first administration, Mean","serum PTH; 1 mg/kg, time 24 h",864.186
same,Doses that steadily decreased the serum PTH level,"serum PTH; once daily oral for 14 days, 24 h after administration on days 7 and 14",≥ 0.3 mg/kg
same,Doses that significantly decreased the serum PTH level,"serum PTH; single oral dose, vs vehicle group",≥ 0.1 mg/kg
same,"Serum Ca levels before (day 0) and 24 h after evocalcet administration, Mean",serum calcium; day 0 (Before),7.862
same,Serum Ca levels before (day 0) and 24 h after evocalcet administration,"serum calcium; day 0 (Before), individual rats",6.475 and 7.379 and 7.410 and 6.746 and 6.842 and 8.689 and 8.077 and 8.881 and 8.577 and 8.645 and 8.453 and 8.169
same,"Serum Ca levels before (day 0) and 24 h after evocalcet administration, Mean",serum calcium; day 7 (24 h),6.700
